From patent US10940188B2, “Compounds and methods for treatment and prevention of Flavivirus infection” (priority 2016, dated 2021)
“And” between values parts separate entries of the source, which are not always exact repeats. Equal values may be shown once.

What follows are compounds tested on ZIKV-induced cell death in hNPCs (assay: ATP cell viability assay for ZIKV-induced cell death, hNPCs). Conditions: ZIKV-infected hNPCs.
Type: cell-based, human
Experimental: (§1) The reagent was reconstituted and prepared as described by the manufacturer. In order to measure the cell death caused by ZIKV infection, cells were cultured for 16 hours at 37° C. with 5% CO2 in assay plates, followed by the addition of ZIKV solution and incubation at 37° C. with 5% CO2 for 72 hours. ATPlite, the ATP monitoring reagent, was then added to the assay plates and they were incubated for 15 minutes. The resulting luminescence was measured using the ViewLux plate reader (Perkin Elmer). Data were normalized using the wells without cells as a control for 100% cell killing, and cell-containing wells without ZIKV infection were used as full cell viability (0% cell killing).
Human NPCs were seeded onto PDL coated 1536-well assay plates at 250 cells per 3 μl/well and incubated at 37° C. in 5% CO2 for 16 hours. Test compounds dissolved in DMSO were transferred to assay plates at a volume of 23 nl/well by an automated pintool workstation (Wako Automation, San Diego, Calif.). Compounds were incubated with cells for 30 minutes at 37° C. in 5% CO2, immediately followed by the addition of 2 μl/well of ZIKV. Incubation time of compound-treated cells with ZIKV varied based on assay format. Experiments measuring virus-induced caspase 3/7 activity required a 6 hour incubation of ZIKV in the presence compounds at 37° C. in 5% CO2. Following this incubation, 3.5 μl/well of caspase 3/7 reagent mixture was added to assay plates. The plates were incubated for 30 minutes at room temperature, and the resultant luminescence signal was measured using a ViewLux plate reader (Perkin Elmer). Experiments measuring virus-induced cell death required a 72-hour incubation of ZIKV in the presence of compounds at 37° C. in 5% CO2. Following this incubation, 3.5 μl/well of ATP content detection reagent was added to assay plates, incubated for 30 minutes at the room temperature, and the resultant luminescence signal was measured in a ViewLux plate reader.
as §1, with “The ATPlite luminescence assay system assay kit (PerkinElmer) was used to determine cell viability. The reagent” for “The reagent”, “by the manufacture. In order” for “by the manufacturer. In order”, “followed by addition of” for “followed by the addition of”, “plates and incubated for” for “plates and they were incubated for”, “Elmer). Data was normalized using” for “Elmer). Data were normalized using”
Human NPCs were seeded onto PDL coated 1536-well assay plates at 250 cells per 3 μl/well and incubated at 37° C. in 5% CO2 for 16 hours. Test compounds dissolved in DMSO were transferred to assay plates at a volume of 23 nl/well by an automated pintool workstation (Wako Automation, San Diego, Calif.). Compounds were incubated with cells for 30 minutes at 37° C. in 5% CO2, immediately followed by the addition of 2 μl/well of ZIKV. Incubation time of compound-treated cells with ZIKV varied based on assay format. Experiments measuring virus induced caspase 3/7 activity required a 6 hour incubation of ZIKV in the presence compounds at 37° C. in 5% CO2. Following this incubation, 3 μl/well of caspase 3/7 reagent mixture was added to assay plates, incubated for 30 minute at room temperature, and the resultant luminescence signal was measured using a ViewLux plate reader (Perkin Elmer). Experiments measuring the virus induced cell death required a 72 hour incubation of ZIKV in the presence of compounds at 37° C. in 5% CO2. Following this incubation, 3 μl/well of ATP content detection reagent was added to assay plates, incubated for 30 minute at room temperature, and the resultant luminescence signal was measured in a ViewLux plate reader.
`O=C(Nc1ccc(C(=O)O)c(O)c1)c1ccccc1` [Benzoylpas] was tested, and the “Cell viability (efficacy, %) NPCs” value was 0.0%.
For `O=C(OCc1ccccc1)c1ccc(O)cc1` [Benzylparaben], the “Cell viability (efficacy, %) NPCs” value was 0.0%.
For `O=C(O)CCC(=O)c1ccc(-c2ccccc2)cc1` [Fenbufen], the “Cell viability (efficacy, %) NPCs” value was 0.0%.
`O=S(=O)(O)c1ccc2[nH]c(-c3ccccc3)nc2c1` [Ensulizole] was tested, and the “Cell viability (efficacy, %) NPCs” value was 0.0%.
`CCOCCOC(=O)C=Cc1ccc(OC)cc1` [2-Ethoxylethyl-p-methoxycinnamate] was tested, and the “Cell viability (efficacy, %) NPCs” value was 0.0%.
`CN(C)CCCSc1ccccc1NC(=O)/C=C/c1ccccc1` [Cinanserin] was tested, and the “Cell viability (efficacy, %) NPCs” value was 0.0%.
`CN1CC(=O)NC1=NC(=O)Nc1cccc(Cl)c1` [Fenobam] was tested, and the “Cell viability (efficacy, %) NPCs” value was 0.0%.
With Flurbiprofen axetil the “Cell viability (efficacy, %) NPCs” value was 0.0%.
For Vitamin B12, the “Cell viability (efficacy, %) NPCs” value was 0.0%.
For `O=C1NC(=O)/C(=C/c2ccc(-c3ccc(F)cc3O)o2)S1` [AS-252424], the “Cell viability (efficacy, %) NPCs” value was 0.0%.

Each compound was assayed on ZIKV-induced caspase 3/7 activity in human astrocytes (assay: Caspase 3/7 activity assay, ZIKV-infected human astrocytes). Conditions: Astrocyte; ZIKV-infected human astrocytes; read-out: Caspase 3 (IC50, uM) Astrocyte.
Type: cell-based
Procedure, shortened: (§2)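 Human NPCs, SNB-19 cells or astrocytes seeded 16 h, compound added 30 min before ZIKV, then 6 h infection at 37 °C. Caspase-Glo 3/7 luminescence after 30 min at room temperature, normalized to uninfected cells (0%) and ZIKV-infected cells (100%).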
In the case of `O=C(Nc1ccc(C(=O)O)c(O)c1)c1ccccc1` [Benzoylpas], the IC50 was 5.81 µM.
`O=C(Nc1ccc([N+](=O)[O-])cc1Cl)c1cc(Cl)ccc1O` [Niclosamide] showed an IC50 of 1.84 µM.
Compound `O=C(OCc1ccccc1)c1ccc(O)cc1` [Benzylparaben] has an IC50 of 17.3 µM.
For `O=C(O)CCC(=O)c1ccc(-c2ccccc2)cc1` [Fenbufen], the IC50 was 21.8 µM.
`CN(C)CCCSc1ccccc1NC(=O)/C=C/c1ccccc1` [Cinanserin] gave an IC50 of 15.5 µM.

Same assay, conditions: Astrocyte; ZIKV-infected human astrocytes; read-out: Caspase 3 (efficacy, %) Astrocyte
`O=C(Nc1ccc(C(=O)O)c(O)c1)c1ccccc1` [Benzoylpas] gave an Emax of 94.9%.
For `O=C(Nc1ccc([N+](=O)[O-])cc1Cl)c1cc(Cl)ccc1O` [Niclosamide], the Emax was 96.8%.
With `O=C(OCc1ccccc1)c1ccc(O)cc1` [Benzylparaben] the Emax was 62.8%.
With `O=C(O)CCC(=O)c1ccc(-c2ccccc2)cc1` [Fenbufen] the Emax was 81.5%.
Work on `CCOCCOC(=O)C=Cc1ccc(OC)cc1` [2-Ethoxylethyl-p-methoxycinnamate] yielded an Emax of 0%.
For `CN(C)CCCSc1ccccc1NC(=O)/C=C/c1ccccc1` [Cinanserin], the Emax was 80.2%.

Same assay, conditions: Homo sapiens, Astrocyte, read-out: Caspase 3 (IC50, uM) Astrocyte
`O=S(=O)(O)c1ccc2[nH]c(-c3ccccc3)nc2c1` [Ensulizole] gave an IC50 of 1.95 µM.

Same assay, conditions: Homo sapiens, Astrocyte, read-out: Caspase 3 (efficacy, %) Astrocyte
`O=S(=O)(O)c1ccc2[nH]c(-c3ccccc3)nc2c1` [Ensulizole] showed an Emax of 82.7%.

Same assay, conditions: ZIKV-infected human astrocytes
With `CC(=O)Nc1ccc([C@H](C)C(=O)Nc2ncc(C(C)C)s2)cc1` [PHA-690509] the “Caspase 3 (efficacy, %) Astrocyte” value was 71.6%.
In the case of `CN1CC(=O)NC1=NC(=O)Nc1cccc(Cl)c1` [Fenobam], the “Caspase 3 (efficacy, %) Astrocyte” value was 97.2%.
In the case of Flurbiprofen axetil, the “Caspase 3 (efficacy, %) Astrocyte” value was 65.5%.
In the case of Vitamin B12, the “Caspase 3 (efficacy, %) Astrocyte” value was 77.1% and 62.7%.
With `O=C1NC(=O)/C(=C/c2ccc(-c3ccc(F)cc3O)o2)S1` [AS-252424] the “Caspase 3 (efficacy, %) Astrocyte” value was 37.5%.

Same assay, conditions: ZIKV-infected human astrocytes; read-out: Caspase 3 (IC50, uM) Astrocyte
`CC(=O)Nc1ccc([C@H](C)C(=O)Nc2ncc(C(C)C)s2)cc1` [PHA-690509] showed an IC50 of 13 µM.
`CN1CC(=O)NC1=NC(=O)Nc1cccc(Cl)c1` [Fenobam] was tested, and the IC50 was 9.2 µM.
Flurbiprofen axetil gave an IC50 of 21.8 µM.
In the case of Vitamin B12, the IC50 was 8.69 µM and 6.73 µM.
Work on `O=C1NC(=O)/C(=C/c2ccc(-c3ccc(F)cc3O)o2)S1` [AS-252424] yielded an IC50 of 1.73 µM.

The compounds below were run on ZIKV-induced caspase 3/7 activity in SNB-19 cells (assay: Caspase 3/7 activity assay, ZIKV-infected SNB-19 cells). Conditions: Homo sapiens, SNB-19, read-out: Caspase 3 (IC50, uM) SNB-19.
Type: cell-based
Procedure, shortened: as §2
`O=S(=O)(O)c1ccc2[nH]c(-c3ccccc3)nc2c1` [Ensulizole] gave an IC50 of 1.84 µM.

Same assay, conditions: Homo sapiens, SNB-19, read-out: Caspase 3 (efficacy, %) SNB-19
For `O=S(=O)(O)c1ccc2[nH]c(-c3ccccc3)nc2c1` [Ensulizole], the Emax was 73.3%.

Same assay, conditions: Homo sapiens; ZIKV-infected SNB-19 cells; read-out: Caspase 3 (IC50, uM) SNB-19
`O=C(Nc1ccc(C(=O)O)c(O)c1)c1ccccc1` [Benzoylpas] gave an IC50 of 6.9 µM.
With `O=C(Nc1ccc([N+](=O)[O-])cc1Cl)c1cc(Cl)ccc1O` [Niclosamide] the IC50 was 2.06 µM.
With `O=C(OCc1ccccc1)c1ccc(O)cc1` [Benzylparaben] the IC50 was 19.5 µM.
Work on `O=C(O)CCC(=O)c1ccc(-c2ccccc2)cc1` [Fenbufen] yielded an IC50 of 24.5 µM.
Work on `CCOCCOC(=O)C=Cc1ccc(OC)cc1` [2-Ethoxylethyl-p-methoxycinnamate] yielded an IC50 of 27.5 µM.
For `CN(C)CCCSc1ccccc1NC(=O)/C=C/c1ccccc1` [Cinanserin], the IC50 was 12.3 µM.

Same assay, conditions: Homo sapiens; ZIKV-infected SNB-19 cells; read-out: Caspase 3 (efficacy, %) SNB-19
With `O=C(Nc1ccc(C(=O)O)c(O)c1)c1ccccc1` [Benzoylpas] the Emax was 92.8%.
`O=C(Nc1ccc([N+](=O)[O-])cc1Cl)c1cc(Cl)ccc1O` [Niclosamide] showed an Emax of 93.9%.
In the case of `O=C(OCc1ccccc1)c1ccc(O)cc1` [Benzylparaben], the Emax was 91.8%.
`O=C(O)CCC(=O)c1ccc(-c2ccccc2)cc1` [Fenbufen] was tested, and the Emax was 76.3%.
Compound `CCOCCOC(=O)C=Cc1ccc(OC)cc1` [2-Ethoxylethyl-p-methoxycinnamate] has an Emax of 53%.
`CN(C)CCCSc1ccccc1NC(=O)/C=C/c1ccccc1` [Cinanserin] was tested, and the Emax was 92%.

Same assay, conditions: ZIKV-infected SNB-19 cells
With `CC(=O)Nc1ccc([C@H](C)C(=O)Nc2ncc(C(C)C)s2)cc1` [PHA-690509] the “Caspase 3 (efficacy, %) SNB-19” value was 74.6%.
In the case of `CN1CC(=O)NC1=NC(=O)Nc1cccc(Cl)c1` [Fenobam], the “Caspase 3 (efficacy, %) SNB-19” value was 110%.
With Flurbiprofen axetil the “Caspase 3 (efficacy, %) SNB-19” value was 45.7%.
With `O=C1NC(=O)/C(=C/c2ccc(-c3ccc(F)cc3O)o2)S1` [AS-252424] the “Caspase 3 (efficacy, %) SNB-19” value was 38.0%.

Same assay, conditions: ZIKV-infected SNB-19 cells; read-out: Caspase 3 (IC50, uM) SNB-19
With `CC(=O)Nc1ccc([C@H](C)C(=O)Nc2ncc(C(C)C)s2)cc1` [PHA-690509] the IC50 was 9.2 µM.
With `CN1CC(=O)NC1=NC(=O)Nc1cccc(Cl)c1` [Fenobam] the IC50 was 7.31 µM.
For Flurbiprofen axetil, the IC50 was 19.5 µM.
Vitamin B12 was tested, and the IC50 was 11.6 µM and 13.4 µM.
Work on `O=C1NC(=O)/C(=C/c2ccc(-c3ccc(F)cc3O)o2)S1` [AS-252424] yielded an IC50 of 2.18 µM.

These compounds were tested on ZIKV-induced cell death in human astrocytes (assay: ATP cell viability assay for ZIKV-induced cell death, human astrocytes). Conditions: Astrocyte; ZIKV-infected human astrocytes; read-out: Cell viability (IC50, uM) Astrocyte.
Type: cell-based
Work on `O=C(Nc1ccc([N+](=O)[O-])cc1Cl)c1cc(Cl)ccc1O` [Niclosamide] yielded an IC50 of 1.73 µM.

Same assay, conditions: Homo sapiens, Astrocyte; following ZIKV infection; read-out: IC50 (μM) for improving cell viability, Astrocytes
For `O=C(Nc1ccc([N+](=O)[O-])cc1Cl)c1cc(Cl)ccc1O` [Niclosamide], the IC50 was 1.73 µM.

Same assay, conditions: ZIKV-infected human astrocytes
For `CC(=O)Nc1ccc([C@H](C)C(=O)Nc2ncc(C(C)C)s2)cc1` [PHA-690509], the “Cell viability (efficacy, %) Astrocyte” value was 81.9%.
With `O=C(Nc1ccc(C(=O)O)c(O)c1)c1ccccc1` [Benzoylpas] the “Cell viability (efficacy, %) Astrocyte” value was 0.0%.
In the case of `O=C(Nc1ccc([N+](=O)[O-])cc1Cl)c1cc(Cl)ccc1O` [Niclosamide], the “Cell viability (efficacy, %) Astrocyte” value was 51.2%.
For `O=C(OCc1ccccc1)c1ccc(O)cc1` [Benzylparaben], the “Cell viability (efficacy, %) Astrocyte” value was 0.0%.
`O=C(O)CCC(=O)c1ccc(-c2ccccc2)cc1` [Fenbufen] was tested, and the “Cell viability (efficacy, %) Astrocyte” value was 0.0%.
In the case of `O=S(=O)(O)c1ccc2[nH]c(-c3ccccc3)nc2c1` [Ensulizole], the “Cell viability (efficacy, %) Astrocyte” value was 0.0%.
In the case of `CCOCCOC(=O)C=Cc1ccc(OC)cc1` [2-Ethoxylethyl-p-methoxycinnamate], the “Cell viability (efficacy, %) Astrocyte” value was 0.0%.
For `CN(C)CCCSc1ccccc1NC(=O)/C=C/c1ccccc1` [Cinanserin], the “Cell viability (efficacy, %) Astrocyte” value was 0.0%.
For `CN1CC(=O)NC1=NC(=O)Nc1cccc(Cl)c1` [Fenobam], the “Cell viability (efficacy, %) Astrocyte” value was 0.0%.
With Flurbiprofen axetil the “Cell viability (efficacy, %) Astrocyte” value was 0.0%.
For Vitamin B12, the “Cell viability (efficacy, %) Astrocyte” value was 0.0%.
With `O=C1NC(=O)/C(=C/c2ccc(-c3ccc(F)cc3O)o2)S1` [AS-252424] the “Cell viability (efficacy, %) Astrocyte” value was 0.0%.

Same assay, conditions: ZIKV-infected human astrocytes; read-out: Cell viability (IC50, uM) Astrocyte
`CC(=O)Nc1ccc([C@H](C)C(=O)Nc2ncc(C(C)C)s2)cc1` [PHA-690509] showed an IC50 of 7.74 µM.

Same assay, conditions: following ZIKV infection; read-out: IC50 (μM) for improving cell viability, Astrocytes
Work on `CC(=O)Nc1ccc([C@H](C)C(=O)Nc2ncc(C(C)C)s2)cc1` [PHA-690509] yielded an IC50 of 7.47 µM.
